In brackets after ≈: the same amount, converted by molar mass. Read-outs that look alike come from different tables or passages of the source.
Test system: C. glabrata parent strain (ATCC 90030) and C. glabrata mutants
Assay: microbe, parasite or virus in culture
Type: cell-based
Details: for MIC80: C. glabrata parent strain
[1] = C. glabrata (ATCC 90030) parent strain

Row | SMILES | 4-fold synergy Fluconazole/Cpd 4 [1] | 4-fold synergy Itraconazole/Cpd 4 [1] | Compound 4 concentration for synergy with azoles (itraconazole, fluconazole, all azole-resistant mutants tested) [µg/mL] | Compound 4 concentration lowering itraconazole MIC80 (itraconazole-resistant mutants) [µg/mL] | MIC80 (Nakaseomyces glabratus, ATCC90030, azole alone) [µg/mL] | MIC (Nakaseomyces glabratus, ATCC90030, read-out: fluconazole MIC in presence of Compound 4, fluconazole-resistant mutants) [µg/mL] | MIC (Nakaseomyces glabratus, ATCC90030, read-out: fluconazole MIC in presence of Compound 4, susceptible parent) [µg/mL] | MIC80 (azole alone) [µg/mL]
1 | O=C(Cc1ccc(CCCCc2ccccc2)cc1)NO [Cpd 4] | 0.25–0.5 ug/ml Cpd 4 | 0.25–0.5 ug/ml Cpd 4 | ≤ 4 | ≤ 44 | – | – | – | –
2 | OC(Cn1cncn1)(Cn1cncn1)c1ccc(F)cc1F [fluconazole] | – | – | – | – | 32 (≈ 104 µM) | 4 to 32 | 4 to 8 | 32 to 64

Source: patent publication US8759400B2, “Histone deacetylase inhibitors for enhancing activity of antifungal agents” (MethylGene Inc., priority 2005, dated 2014)
